The values that follow come from patent US20090202518A1, “Treatment of sepsis and inflammation with alpha2A Adrenergic antagonists” (The Feinstein Institute of Medical Research, priority 2005, published 2009).

Entries after “also recorded” stand apart in the source; their conditions may differ.

One experiment deals with Kupffer cells (KCs). Nature of the experiment: TNF-α release from cultured Kupffer cells. Type of experiment: cell-based. The text has this:
The nervous system regulates the inflammatory response in real time. Our previous studies have shown that the sympathetic neurotransmitter, norepinephrine (NE), increases TNF-α release via activation of α2A-adrenoceptor (α2A-AR) on Kupffer cells (KCs). In cultured KCs, NE increases the release of TNF-α by 3.4-fold and a specific antagonist for α2A-AR, BRL-44408 maleate, reduces TNF-α secretion by 51%. However, it remains unknown whether in vivo administration of α2A-AR antagonists in sepsis is beneficial.

Experiment [1] has as its system male rats with sepsis induced by cecal ligation and puncture (CLP). Put plainly: Cecal ligation and puncture (CLP) model of sepsis in rats. It counts as in vivo, rat. On the procedure:
Sepsis was induced in male rats by cecal ligation and puncture (CLP). The CLP model of sepsis has been used extensively as a reliable model of the pathophysiologic and immunologic alterations in human sepsis.
BRL-44408 maleate (2.5 mg/kg BW) was administered intravenously at the time of CLP. Twenty hours after CLP, the rats were sacrificed and blood and liver samples were collected. Serum levels of TNF-α, liver enzymes (i.e., AST and ALT), lactate and creatinine were measured. Gene expression of TNF-α in the liver was analyzed. In additional groups of animals, the necrotic cecum was excised at 20 h post-CLP and the 10-day survival was recorded.

Where [2] appears, read: 2.5 mg/kg BW intravenously at the time of CLP, 20 h after CLP, means±SE, n = 6/group.

Regarding `NC[C@H](O)c1ccc(O)c(O)c1` [NE, norepinephrine], in the experiment with Kupffer cells (KCs), the “increase of the release of TNF-α” value is recorded as 3.4 fold.

Regarding `CC1c2ccccc2CN1CC1=NCCN1.O=C(O)/C=C\C(=O)O` (stereo not drawn) [BRL-44408 maleate], in experiment [1] (setting [2]), the “ALT (serum level)” value turned out to be 20.5 ± 4.5 IU/L, the “AST (serum level)” value was found to be 20.9 ± 5.3 IU/L, the “Creatinine (serum level)” value was found to be 1.1 ± 0.2 mg/dL and the “Lactate (serum level)” value is 20.6 ± 1.9 mg/dL. In addition, in experiment [1] (setting [2]), the “TNF-α (serum level)” value was 91.8 ± 8.1 pg/mL. Also, the “TNF-α/G3PDH (mRNA)” value in experiment [1] (liver gene expression, 2.5 mg/kg BW intravenously at the time of CLP, 20 h after CLP, means±SE, n = 6/group) was 0.5 ± 0.1. Moreover, the “10-day survival / mortality” value in experiment [1] (necrotic cecum excised at 20 h post-CLP, FIG. 1) is reported as “increased survival; also recorded: reduced mortality”. The “reduction of TNF-α secretion” value in the experiment with Kupffer cells (KCs) is 51%.
